Reference: PubChem BioAssay (NCI)
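Test compounds were applied to cells in 96-well plates for 48 hours at 5 doses. GI50 = concentration required for 50% inhibition of growth. TGI marks complete inhibition of growth.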

Columns and labels:
Experiment in all cases: inhibition of tumour cell growth, NCI panel, 48 h
KM12 colon = system: KM12 colon
SNB-75 CNS = system: SNB-75 CNS
MALME-3M melanoma = system: MALME-3M melanoma
HOP-62 NSCLC = system: HOP-62 NSCLC
TK-10 renal = system: TK-10 renal
SR leukemia = system: SR leukemia
SK-MEL-28 melanoma = system: SK-MEL-28 melanoma
RPMI-8226 leukemia = system: RPMI-8226 leukemia
CCRF-CEM leukemia = system: CCRF-CEM leukemia
UO-31 renal = system: UO-31 renal

SMILES	TGI (KM12 colon) [µM]	TGI (SNB-75 CNS) [µM]	TGI (MALME-3M melanoma) [µM]	TGI (HOP-62 NSCLC) [µM]	TGI (TK-10 renal) [µM]	TGI (SR leukemia) [µM]	TGI (SK-MEL-28 melanoma) [µM]	TGI (RPMI-8226 leukemia) [µM]	TGI (CCRF-CEM leukemia) [µM]	TGI (UO-31 renal) [µM]	GI50 (KM12 colon) [µM]	GI50 (SNB-75 CNS) [µM]	GI50 (HOP-62 NSCLC) [µM]	GI50 (TK-10 renal) [µM]	GI50 (SR leukemia) [µM]	GI50 (SK-MEL-28 melanoma) [µM]	GI50 (RPMI-8226 leukemia) [µM]	GI50 (CCRF-CEM leukemia) [µM]	GI50 (UO-31 renal) [µM]
CCCC(=O)OCC(O)CO (stereo not drawn)	> 5000	> 5000	> 5000	> 5000	> 5000	> 5000	> 5000	> 5000	> 5000	> 5000									
C[C@H](O)C(=O)SC[C@H](NC(=O)CC[C@@H](N)C(=O)O)C(=O)NCC(=O)O	> 100	> 100	> 100	> 100	> 100	> 100	> 100	> 100	> 100	> 100									
Cc1ccc(S(=O)(=O)NCCSS(=O)(=O)c2ccc(C)cc2)cc1	85.8	77.2			> 100	39	76.6		> 100	61.7									
Oc1ccc2ccccc2c1Cc1c(O)ccc2ccccc12	43.9	42.2	28.9	41.4	48.9		40.7	40.4	45.8	32.2									
O=C(/N=C/c1c(O)c2ccccc2oc1=O)NC1CCCCC1				> 100	> 100	> 100	> 100	> 100		> 100									
COc1c2ccoc2c(S(=O)(=O)Nc2ccc(Cl)cc2)c2oc(C)cc(=O)c12	> 100	76.4	> 100	> 100			> 100	> 100	> 100	> 100									
Cc1cc(-c2nc3cc(F)ccc3s2)ccc1NC(=O)C(C)N (stereo not drawn)	9.36	10.6	25	8.32	2.93	5.24	11	16.9	3.25	7.05									
CN(C)CCC(C(=O)C(C)(C)C)c1ccccn1 (stereo not drawn)	> 100	> 100	> 100	> 100	> 100	> 100	> 100	> 100	> 100	> 100									
CC(O)=NC(Cc1ccc2ccccc2c1)C(O)=NC(Cc1ccc(Cl)cc1)C(O)=NC(Cc1c[nH]c2ccccc12)C(O)=NC(CO)C(O)=NC(Cc1ccc(O)cc1)C(O)=NC(CCCN=C(N)N)C(O)=NC(CC(C)C)C(O)=NC(CCCN=C(N)N)C(=O)N1CCCC1C(O)=NC(C)C(=N)O (stereo not drawn)	> 100	> 100	> 100	> 100	> 100	> 100		> 100	> 100	63.1									
CCCCOc1ccc(S(=O)(=O)/N=C(\NN)Nc2ccc(Cl)cc2)cc1	> 100	27	86.3	38.5	> 100	52.6	> 100	> 100	47.6	37.5									
CO[C@]12C[C@H](CNC(=O)c3cc(Br)c(Br)[nH]3)O[C@H]1NC(=O)N2	> 100	> 100	> 100	> 100	> 100	> 100	> 100	> 100	> 100	> 100									
CCOC(=O)[C@H]1C[C@]23CN(C(=O)OC(C)(C)C)CC[C@H]2CCC2(SCCCS2)[C@@H]3N1C	> 100	> 100	74.6	> 100	81.2	76.5	> 100	54.4	> 100	> 100									
NC1=NS(=O)(=O)Nc2nc(-c3cccs3)[nH]c21	> 100	> 100	> 100	> 100	> 100	> 100	> 100	> 100	> 100	> 100									
NCCc1ccc2c(c1)C(=O)c1c(O)ccc(O)c1C2=O	> 100	42.3	4.75	13.4	> 100	> 100		> 100	> 100	25.7									
OC1(c2ccc3ccccc3c2)c2ccc3ccccc3c2C2=NCCN21 (stereo not drawn)	> 100	46.9	> 100	47.3	> 100	> 100	> 100	> 100	> 100	> 100									
O=C1N[C@@H]2c3c(Br)sc(Br)c3C(=O)[C@@H]2N1	19.4	18.4	18.3	20.6	6.09	4.72	12.3	18.5	3.29	9.93									
COc1ccc2c(c1)CC[C@@H]1[C@@H]2CC[C@]2(C)[C@@H](O)/C(=C/c3ccncc3)C[C@@H]12	31.4	39.8	29.9	37.3	34		35.5	25.1	81	31.5									

SMILES	TGI (KM12 colon) [µM]	TGI (SNB-75 CNS) [µM]	TGI (MALME-3M melanoma) [µM]	TGI (HOP-62 NSCLC) [µM]	TGI (TK-10 renal) [µM]	TGI (SR leukemia) [µM]	TGI (SK-MEL-28 melanoma) [µM]	TGI (RPMI-8226 leukemia) [µM]	TGI (CCRF-CEM leukemia) [µM]	TGI (UO-31 renal) [µM]	GI50 (KM12 colon) [µM]	GI50 (SNB-75 CNS) [µM]	GI50 (HOP-62 NSCLC) [µM]	GI50 (TK-10 renal) [µM]	GI50 (SR leukemia) [µM]	GI50 (SK-MEL-28 melanoma) [µM]	GI50 (RPMI-8226 leukemia) [µM]	GI50 (CCRF-CEM leukemia) [µM]	GI50 (UO-31 renal) [µM]
COc1cc(NCc2ccc3n2-c2ccccc2OC3)cc(OC)c1OC	> 100	62.4	50.9	> 100	> 100	35.6	> 100	26.9	44.3	60									
CC[N+](CC)(CC)/C(=N/S(=O)(=O)c1cc(C)c(Cl)cc1S)[N-]S(=O)(=O)c1ccc(Cl)cc1	> 100			> 100	> 100		> 100	> 100	> 100	> 100									
C=CCC1=CC2(OC)C(=O)C(OC)(OC)C1C1C(OC)(OC)C(=O)C(OC)=CC12CC=C (stereo not drawn)	> 100	> 100	> 100	> 100	> 100		> 100	> 100	> 100	> 100									
CCOC(=O)c1c(N2CCOCC2)[nH]c(=O)c(C(c2ccc(Cl)c([N+](=O)[O-])c2)c2c(O)c(C(=O)OCC)c(N3CCOCC3)[nH]c2=O)c1O	> 100	> 100	> 100	> 100	> 100	> 100	> 100	> 100	40.4	95.5									
NC(N)=N/N=C/c1ccc(O)c(C(=O)O)c1	> 100	> 100	> 100	> 100	> 100	> 100	> 100	> 100	> 100	> 100									
CCOc1ccc2c(c1)NC(=O)C(C1OC(c3ccccc3)=CC1=O)S2 (stereo not drawn)	66.3		44.5	> 100	> 100	46.1	68.8	30.5	10.9	90.3									
CCCc1ccc(OCC(=O)N/N=C/c2c(-c3ccccc3)[nH]c3ccccc23)cc1	38.5	58.6	> 100	37.8	63.8	23.1	> 100	30.7	40.1	> 100									
O=C(CCO)OCCCCCC/C=C\CCCCCC/C=C\CCCCCCCCOC(=O)CCO	46	34	34.7	36.1	31.5		37.5		32.2	32.6									
C[C@]12CC[C@H](O)CC1=CC[C@@H]1[C@@H]2CC[C@]2(C)C(=O)CC[C@@H]12	> 100	> 100	> 100		> 100	> 100	> 100	> 100		> 100									
Cc1cc(=O)[nH]c2c3c(ccc12)OC(C)(C)C=C3	> 100	87.9	> 100	> 100	> 100	> 100	> 100	> 100	> 100	> 100									
CC(C)(C)c1cc(C(C)(C)C)c2sc(=S)oc2c1O	18	18.5	32.1	31.1	17.2	9.76	27.6	33.7	> 27	16.2									
FC(F)(F)C1=NC(=NNc2nnc(-c3ccccc3)c(-c3ccccc3)n2)N=C(C(F)(F)F)C1	> 100	> 100	> 100	> 86.7			> 100	> 100	> 100	29.1									
O=c1cc(-c2nc3ccccc3[nH]2)[nH]c2nc(-c3nc4ccccc4[nH]3)cc(-c3ccc(Cl)cc3)c12	64.4		71.2	54.7	49	46.6		44	91.6	33									
COc1ccc(-n2cc(-c3ccc(OC)c(OC)c3)nc2SCc2ccccc2)cc1Cl	68.1	> 100		> 100	> 100	51.1	> 100	20	31.2	> 100	21.3	27.4	28.3	29.5	16	27.4	4.38	0.857	15.2
Cc1onc(-c2c(F)cccc2Cl)c1C(=O)N[C@@H]1C(=O)N2[C@@H]1SC(C)(C)[C@@H]2C(=O)O	> 100	> 100	> 100	> 100	> 100	> 100	> 100	> 100		67.4									
O=C(Nc1ccc(F)cc1)c1cc2ccc(O)cc2oc1=Nc1ccccc1F	> 100		> 100	> 100		> 100	> 100	> 100	> 100										
